The text below walks through data of ChEMBL document CHEMBL4004849, “Tetrazolylmethyl quinolines: Design, docking studies, synthesis, anticancer and antifungal analyses” (2017).

Molecules are shown by their SMILES. In brackets after ≈: the same amount, converted by molar mass.

Common to all, as to assay type: functional
Assay [1] relates to Aspergillus fumigatus. The assay is described as follows: Antifungal activity against Aspergillus fumigatus at 100 ug/ml by disc diffusion method. The note with it: read-out: IZ. (In general: A growth-free zone around the sample is the usual read-out of agar diffusion tests.)
Assay [2] concerns Candida albicans. Nature of the assay: Antifungal activity against Candida albicans after 24 hrs by serial dilution method.
Assay [3] deals with Aspergillus fumigatus. The assay is described as follows: Antifungal activity against Aspergillus fumigatus after 24 hrs by serial dilution method.
Assay [4] deals with Candida albicans. The assay is described as follows: Antifungal activity against Candida albicans at 100 ug/ml by disc diffusion method. The note with it: read-out: IZ.

For `Cc1ccc2nc(Cl)c(Cn3nnc(Cc4ccccc4)n3)cc2c1`, the zone of inhibition at 100 µg/mL in assay [1] and in assay [4] was 12 mm each time. Further, the MIC in assay [2] and in assay [3] was 25 µg/mL (≈ 71.5 µM) in each case.

With `Clc1nc2ccc(Br)cc2cc1Cn1nnc(CSc2ccccc2)n1`, the figures for the zone of inhibition at 100 µg/mL in assay [1] and in assay [4] were 15 mm and 18 mm, respectively. The MIC amounted to 25 µg/mL (≈ 56 µM) in assay [2] and 5 µg/mL (≈ 11.2 µM) in assay [3].

Take `OC(Cn1cncn1)(Cn1cncn1)c1ccc(F)cc1F` [FLUCONAZOLE]: the zone of inhibition at 100 µg/mL in assay [1] amounted to 26 mm; in assay [4], 24 mm. Also, the MIC in assay [2] and in assay [3] was 30 µg/mL (≈ 98 µM) each time.

As for `COc1ccc2nc(Cl)c(Cn3nnc(CSc4ccccc4)n3)cc2c1`, the zone of inhibition at 100 µg/mL in assay [1] is 20 mm; in assay [4] it was 16 mm. Further, the values for the MIC in assay [2] and in assay [3] were 25 µg/mL (≈ 62.8 µM) and 10 µg/mL (≈ 25.1 µM), respectively.

In general, MIC refers to the least concentration at which growth counts as inhibited.
